Measured values as given in PubChem BioAssay AID1963867 (Molecular Pharmacology Branch, DTP, NCI, 2024).

System: KRAS-mutant PDC tumor spheroid with HUVEC/MSC, viability
Assay: Anticancer human tumor 327498-153-R-J2-PDC patient-derived uterine carcinosarcoma cell line growth inhibition [KRAS2]
Conditions: for IC50: curve of first compound; for viability, T/C: stronger effect = lower value
In short: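 Combination screen of spheroid viability in tumor-cell co-cultures with endothelial (HUVEC) and mesenchymal stem cell stroma. Each agent was tested in half-log dilutions, topping at clinical Cmax or at 10 microM without a known Cmax.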

[1] = second compound 0.1 µM, first compound 0.0316 µM
[2] = second compound 0.1 µM, first compound 0.1 µM
[3] = second compound 0.1 µM, first compound 0.316 µM
[4] = second compound 0.1 µM, first compound 1 µM
[5] = second compound 0.1 µM, first compound 3.16 µM
[6] = second compound 0.1 µM, first compound 10 µM
[7] = second compound 0.316 µM, first compound 0.0316 µM
[8] = second compound 0.316 µM, first compound 0.1 µM
[9] = second compound 0.316 µM, first compound 0.316 µM
[10] = second compound 0.316 µM, first compound 1 µM
[11] = second compound 0.316 µM, first compound 3.16 µM
[12] = second compound 0.316 µM, first compound 10 µM
[13] = second compound 1 µM, first compound 0.0316 µM
[14] = second compound 1 µM, first compound 0.1 µM
[15] = second compound 1 µM, first compound 0.316 µM
[16] = second compound 1 µM, first compound 1 µM
[17] = second compound 1 µM, first compound 3.16 µM
[18] = second compound 1 µM, first compound 10 µM
[19] = second compound 3.16 µM, first compound 0.0316 µM
[20] = second compound 3.16 µM, first compound 0.1 µM
[21] = second compound 3.16 µM, first compound 0.316 µM
[22] = second compound 3.16 µM, first compound 1 µM
[23] = second compound 3.16 µM, first compound 3.16 µM
[24] = second compound 3.16 µM, first compound 10 µM
[25] = second compound 10 µM, first compound 0.0316 µM
[26] = second compound 10 µM, first compound 0.1 µM
[27] = second compound 10 µM, first compound 0.316 µM
[28] = second compound 10 µM, first compound 1 µM
[29] = second compound 10 µM, first compound 3.16 µM
[30] = second compound 10 µM, first compound 10 µM
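Note: spheroids exposed to agents for seven days before reading.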
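Throughout, for viability, T/C: 100% = DMSO vehicle wells so lower means fewer viable cells.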

SMILES	IC50 (second compound 0.1 µM) [nM]	IC50 (second compound 0.316 µM) [nM]	IC50 (second compound 1 µM) [nM]	IC50 (second compound 3.16 µM) [nM]	IC50 (second compound 10 µM) [nM]	viability, T/C [1] [%]	viability, T/C [2] [%]	viability, T/C [3] [%]	viability, T/C [4] [%]	viability, T/C [5] [%]	viability, T/C [6] [%]	viability, T/C [7] [%]	viability, T/C [8] [%]	viability, T/C [9] [%]	viability, T/C [10] [%]	viability, T/C [11] [%]	viability, T/C [12] [%]	viability, T/C [13] [%]	viability, T/C [14] [%]	viability, T/C [15] [%]	other results
CC1(C)CCC(CN2CCN(c3ccc(C(=O)NS(=O)(=O)c4ccc(NCC5CCOCC5)c([N+](=O)[O-])c4)c(Oc4cnc5[nH]ccc5c4)c3)CC2)=C(c2ccc(Cl)cc2)C1 + CNCc1ccccc1-c1csc(C(C)Nc2nc(C)nc3cc(OC)c(OC)cc23)c1	3280	2710	1930	< 31.6	< 31.6	90.5	78.1	79.4	77.5	50.8	13.7	84.3	79.5	73.2	76.4	46	9.74	72.5	72.8	71.3	viability, T/C [16]: 72.3%; viability, T/C [17]: 33.2%; viability, T/C [18]: 1.07%; viability, T/C [19]: 1.08%; viability, T/C [20]: 0.13%; viability, T/C [21]: 0.22%; viability, T/C [22]: 0.13%; viability, T/C [23]: 0.09%; viability, T/C [24]: 0.25%; viability, T/C [25]: 0.41%; viability, T/C [26]: 0.15%; viability, T/C [27]: 0.26%; viability, T/C [28]: 0.14%; viability, T/C [29]: 0.16%; viability, T/C [30]: 0.23%
Cn1nccc1Nc1nccc(-c2cc3c(s2)C(C)(C)N(CCN2CCOCC2)C3=O)n1 + COc1cc2nc(C)nc(NC(C)c3cc(N)cc(C(F)(F)F)c3)c2cc1OC1CCOC1	851	560	826	531	47.2	72.8	73.2	57.6	46.1	44	31.9	82.8	67	52.5	47	37.9	31.6	67.8	65.9	53.7	viability, T/C [16]: 49.4%; viability, T/C [17]: 41.1%; viability, T/C [18]: 33%; viability, T/C [19]: 64.4%; viability, T/C [20]: 57%; viability, T/C [21]: 55.2%; viability, T/C [22]: 45%; viability, T/C [23]: 41.7%; viability, T/C [24]: 36.6%; viability, T/C [25]: 52.7%; viability, T/C [26]: 46.4%; viability, T/C [27]: 44.1%; viability, T/C [28]: 43.8%; viability, T/C [29]: 34.7%; viability, T/C [30]: 25.4%
CC1(C)CCC(CN2CCN(c3ccc(C(=O)NS(=O)(=O)c4ccc(NCC5CCOCC5)c([N+](=O)[O-])c4)c(Oc4cnc5[nH]ccc5c4)c3)CC2)=C(c2ccc(Cl)cc2)C1 + CC1OCC2(CCN(c3cnc(Sc4ccnc(N)c4Cl)c(N)n3)CC2)C1N	1920	1120	< 31.6	< 31.6	< 31.6	64.6	67.3	73.2	66	37.6	3.49	53.7	48.5	51.1	56.4	28.6	1.66	42	42.7	42	viability, T/C [16]: 41%; viability, T/C [17]: 25%; viability, T/C [18]: 0.76%; viability, T/C [19]: 32.6%; viability, T/C [20]: 33.3%; viability, T/C [21]: 30.8%; viability, T/C [22]: 25.9%; viability, T/C [23]: 15.6%; viability, T/C [24]: 0.57%; viability, T/C [25]: 23.6%; viability, T/C [26]: 28.6%; viability, T/C [27]: 23.7%; viability, T/C [28]: 25%; viability, T/C [29]: 15.4%; viability, T/C [30]: 0.27%
